Data: patent EP4310093A1, “AMINO ACID DERIVATIVE, PREPARATION METHOD THEREFOR, AND PHARMACEUTICAL COMPOSITION FOR TREATING HEPATITIS, COMPRISING SAME” (priority 2021, dated 2022)

Key:
HBV [1] = assay: Inhibition of intracellular HBV virus invasion, HBeAg ELISA analysis; format: cell-based; conditions: 20 µM, HepG2-NTCP cell line, HBV 3000 Geq/cell, O.D. at 450 nm
Experimental: (§1) In order to evaluate the ability to inhibit intracellular HBV virus entry (invasion), Enzyme-linked immunosorbent assay (ELISA) analysis to measure HBeAg, which is associated with high infectivity as an antigen in the HBV virus core portion, and Southern blot analysis to measure DNA of HBV were performed.
(§2) Specifically, the HepG2-NTCP cell line was cultured on a 6-well plate, incubation was performed overnight, HBV inhibitors were treated at a concentration of 20 µM, and the positive control Myrcludex-B (MyrB) was treated at a concentration of 200 nM, followed by culture for 24 hours. After HBV infection into the cells to make HBV 3000 genome equivalent per ml/cell (Geq/cell), the cell culture medium was replaced (medium changing, MC) a day after the viral infection to remove the virus unattached to cell membranes. In order to measure an amount of virus that entered the cell, medium changing (MC) was performed once more 4 days after viral infection. 2 days after replacement, HBeAg ELISA analysis was performed using a supernatant, and Southern blot analysis was performed with cell pellets.
HBeAg ELISA analysis was performed using an HBeAg ELISA kit (sanbio, Wantai HBeAg ELISA, cat#WB-2496) for the supernatant obtained by the method in Experimental Example 4-1.
First, a negative control group (Mock), positive control group (MyrB), and samples according to the present disclosure were loaded, by 50 µl each to be triplicate, onto a 96-well plate coated with capture Ab. In this case, Example 1 (LCA-ILE), Example 44 (LCA-Val), Example 52 (LCA-Tyr), Example 51 (LCA-Ser), Example 55 (LCA-Glu), Example 2 (UDCA-Ile), Example 3 (UDCA-Val), Example 25 (LCA-Val-Trp), Example 10 (DCA-Ile), Comparative Example 1 (LCA), and Comparative Example 2 (UDCA) were used as the sample.
The HRP-conjugated detection antibody was loaded into each well by 50 µl, followed by a reaction at 37°C for 30 minutes. Washing buffer (1X PBS, 0.5% Tween20) was added by 200 µl, and washing was performed 5 times. 50 µl of chromogen solution A and 50 µl of chromogen solution B were added to each well, and a reaction was carried out in the darkness at 37°C for 15 minutes. The stop solution was added to each well by 50 µl each to stop the reaction, and the amount of HBeAg was measured by measuring the absorbance (optical density, O.D.) level in the 450 nm wavelength band.

HBV [2] = assay: Inhibition of intracellular HBV virus invasion, Southern blot analysis; format: cell-based; conditions: for amount of HBeAg DNA detected compared to the negative control group (Mock): 20 µM, HepG2-NTCP cell line, HBV 3000 Geq/cell; for activity at 20 µM: Hepatitis B virus, read-out: relative replication rate of quantified HBeAg DNA to the negative control group (Mock), 20 µM, HepG2-NTCP cell line, HBV 3000 Geq/cell
Experimental: as §1, §2
For the cell pellet obtained by the method of Experimental Example 4-1, Southern blot analysis for measurement of […] DNA was performed using Example 1 (LCA-Ile), Example 44 (LCA-Val), Example 52 (LCA-Tyr), Example 51 (LCA-Ser), Example 55 (LCA-Glu), Example 2 (UDCA-Ile), Example 3 (UDCA-Val), Example 25 (LCA-Val-Trp), Example 10 (DCA-Ile), Comparative Example 1 (LCA), and Comparative Example 2 (UDCA).
First, the cell pellets were pipetted with 100 µl of HEPES lysis buffer (10 mM HEPES, 100 mM NaCl, 1 mM EDTA, 1% NP-40), placed on ice for 20 minutes, and then centrifuged with a centrifuge under the conditions at 4°C and 13000 rpm. After transferring the supernatant only to the new microtube, 4.5 µl of nuclease buffer I (10 mM CaCl2, 12 mM MgCl2, DNase 10 units) was added to carry out a reaction at 37°C for 2 hours, and 40 µl of 26% PEG solution was added, followed by a reaction on ice for 1 hour. After centrifuging with the centrifuge at 4°C and 13000 rpm for 30 minutes, and the supernatant was removed cleanly. After releasing the pellets with 100 µl of nuclease buffer II (10 mM Tris, 8 mM CaCl2, 6mM MgCl2), 287.5 µl of 0.5% SDS buffer (25 mM Tris, 10 mM EDTA, 0.5% SDS, 100 mM NaCl) was added, and 12.5 µl of 20 mg/ml proteinase K was added, followed by a reaction at 37°C for 2 hours. 400 µl of phenol-chloroform-isoamyl alcohol was added, centrifugation was performed at room temperature at 13000 rpm after voltexing, the supernatant was transferred to a new tube, 40 µl of 3 M NaOAc was added, and 800 µl of 100% ethanol was added for inverting, followed by a reaction overnight at -20°C. After performing centrifugation at 4°C and 13000 rpm for 30 minutes, 800 µl of 70% ethanol was added and mixed to the pellet obtained by removing the supernatant, centrifugation was performed at 4°C and 13000 rpm for 10 minutes, and then the supernatant was discarded. The ethanol was dried for 5 minutes to leave only the HBV DNA pellets, and then the pellets were dissolved again in 15 µl of TE buffer (10 mM Tris, 1 mM EDTA). HBV DNA samples were loaded in 1% agarose gel, and electrophoresis was performed. It was then immersed in denature buffer (0.25 N NaOH, 1 M NaCl) for 30 minutes to denature dsDNA of HBV into ssDNA. The DNA in the gel was transferred to a Nylon membrane using a transfer buffer (0.4 M NaOH), the membrane was soaked with a 2X SSC buffer (sigma, cat# 85639) for neutralization, followed by drying in air. The membrane was immersed in a church buffer (10% BSA, 0.5 M EDTA, 1 M NaPi, 20% SDS), and the radioisotopes were hybridized using a Mega prime kit (GE healthcare, RPN1607). After washing three times with washing buffer (2X SSC, 0.1% SDS), measurement was performed using radioisotope measurement equipment, and a relative replication rate (%) to the negative control group (Mock) was calculated and shown.

| Structure (SMILES) | HBeAg absorbance level compared with Comparative Example 1 (LCA) and Comparative Example 2 (UDCA) (HBV [1]) | HBeAg absorbance level compared with the negative control group (Mock) (HBV [1]) | amount of HBeAg DNA detected compared to the negative control group (Mock) (HBV [2]) | activity at 20 µM (HBV [2]) [%] |
| --- | --- | --- | --- | --- |
| CC[C@@H](C)[C@H](NC(=O)CC[C@@H](C)[C@H]1CC[C@H]2[C@@H]3[C@@H](O)C[C@@H]4C[C@H](O)CC[C@]4(C)[C@H]3CC[C@]12C)C(=O)O [Example 2, (2S,3R)-2-((R)-4-((3R,5S,7S,8R,9S,10S,13R,14S,17R)-3,7-dihydroxy-10,13-dimethyl-hexadecahydro-1H-cyclopenta[a]phenanthren-17-yl)pentanamido)-3-methylpentanoic acid] | lower | relatively lower | relatively less amount | < 80 |
| CC(C)[C@H](NC(=O)CC[C@@H](C)[C@H]1CC[C@H]2[C@@H]3[C@@H](O)C[C@@H]4C[C@H](O)CC[C@]4(C)[C@H]3CC[C@]12C)C(=O)O [Example 3, (S)-2-((R)-4-((3R,5S,7S,8R,9S,10S,13R,14S,17R)-3,7-dihydroxy-10,13-dimethyl-hexadecahydro-1H-cyclopenta[a]phenanthren-17-yl)pentanamido)-3-methylbutanoic acid] | lower | relatively lower | relatively less amount | < 80 |
| CC[C@@H](C)[C@H](NC(=O)CC[C@@H](C)[C@H]1CC[C@H]2[C@@H]3CC[C@@H]4C[C@H](O)CC[C@]4(C)[C@H]3C[C@H](O)[C@]12C)C(=O)O [Example 10, (2S,3R)-2-((R)-4-((3R,5R,8R,9S,10S,12S,13R,14S,17R)-3,12-dihydroxy-10,13-dimethyl-hexadecahydro-1H-cyclopenta[a]phenanthren-17-yl)pentanamido)-3-methylpentanoic acid] | lower | relatively lower | relatively less amount | < 80 |
| CC(C)[C@H](NC(=O)CC[C@@H](C)[C@H]1CC[C@H]2[C@@H]3CC[C@@H]4C[C@H](O)CC[C@]4(C)[C@H]3CC[C@]12C)C(=O)N[C@@H](Cc1c[nH]c2ccccc12)C(=O)O [Example 25, (S)-2-((S)-2-((R)-4-((3R,5R,8R,9S,10S,13R,14S,17R)-3-hydroxy-10,13-dimethyl-hexadecahydro-1H-cyclopenta[a]phenanthren-17-yl)pentanamido)-3-methylbutanamido)-3-(1H-indol-3-yl)propanoic acid] | – | – | relatively less amount | – |
| CC(C)[C@H](NC(=O)CC[C@@H](C)[C@H]1CC[C@H]2[C@@H]3CC[C@@H]4C[C@H](O)CC[C@]4(C)[C@H]3CC[C@]12C)C(=O)O [Example 44, (S)-2-((R)-4-((3R,5R,8R,9S,10S,13R,14S,17R)-3-hydroxy-10,13-dimethyl-hexadecahydro-1H-cyclopenta[a]phenanthren-17-yl)pentanamido)-3-methylbutanoic acid] | lower | relatively lower | relatively less amount | < 80 |
| C[C@H](CCC(=O)N[C@@H](CO)C(=O)O)[C@H]1CC[C@H]2[C@@H]3CC[C@@H]4C[C@H](O)CC[C@]4(C)[C@H]3CC[C@]12C [Example 51, (S)-3-hydroxy-2-((R)-4-((3R,5R,8R,9S,10S,13R,14S,17R)-3-hydroxy-10,13-dimethyl-hexadecahydro-1H-cyclopenta[a]phenanthren-17-yl)pentanamido)propanoic acid] | – | relatively lower | – | – |
| C[C@H](CCC(=O)N[C@@H](Cc1ccc(O)cc1)C(=O)O)[C@H]1CC[C@H]2[C@@H]3CC[C@@H]4C[C@H](O)CC[C@]4(C)[C@H]3CC[C@]12C [Example 52, (S)-2-((R)-4-((3R,5R,8R,9S,10S,13R,14S,17R)-3-hydroxy-10,13-dimethyl-hexadecahydro-1H-cyclopenta[a]phenanthren-17-yl)pentanamido)-3-(4-hydroxyphenyl)propanoic acid] | – | – | relatively less amount | < 80 |
| C[C@H](CCC(=O)N[C@@H](CCC(=O)O)C(=O)O)[C@H]1CC[C@H]2[C@@H]3CC[C@@H]4C[C@H](O)CC[C@]4(C)[C@H]3CC[C@]12C [Example 55, (S)-2-((R)-4-((3R,5R,8R,9S,10S,13R,14S,17R)-3-hydroxy-10,13-dimethyl-hexadecahydro-1H-cyclopenta[a]phenanthren-17-yl)pentanamido)pentanedioic acid] | – | – | relatively less amount | – |
